Reference: patent US11370781B2, “Combination therapy for treating cancer” (Epizyme, Inc., priority 2012, dated 2022)
Entries after “also recorded” stand apart in the source; their conditions may differ. Like-named read-outs stand apart in the source and are kept apart here.

Tests used:
WSU-DLCL2 cells = assay: Anti-proliferative combination matrix, Cell Titer-Glo, WSU-DLCL2; details: for synergy characterization (Chou-Talalay): drug combined with Compound 44; for enhancement of Compound 44 potency (fold IC50 shift): drug combined with Compound 44, top dose of drug, 4 days Compound 44 then 3 days combination
Protocol: (§6) The WSU-DLCL2 and SU-DHL-10 contain the Y641 EZH2 mutation, and the Toledo cell line contains WT EZH2.
(§7) Increasing doses of drugs were then added to the plates. […] After incubation for an additional 3 days cell viability of WSU-DLCL2 or SU-DHL-10 was measured using Promega Cell Titer-Glo reagent followed by luminescence detection. After 5 days viability of Toledo cells was measured using Promega Cell Titer-Glo reagent followed by luminescence detection.
(§8) First, raw luminescence values were converted to percent inhibition or fraction affected (Fa) calculated using controls for maximum inhibition and DMSO treated cells for minimum inhibition control located on each plate. Percent inhibition values for each constant ratio of compound combinations were entered into Calcusyn to determine the combination index values.

Toledo cells = assay: Anti-proliferative combination matrix, Cell Titer-Glo, Toledo; details: Toledo (WT EZH2); for combination benefit: drug combined with Compound 44, 6 days Compound 44 then 5 days combination
Protocol: as §6, §7, §8

SU-DHL-10 cells = assay: Anti-proliferative combination matrix, Cell Titer-Glo, SU-DHL-10; details: for synergy characterization (Chou-Talalay): drug combined with Compound 44; for enhancement of Compound 44 potency (fold IC50 shift): drug combined with Compound 44, top dose of drug, 4 days Compound 44 then 3 days combination
Protocol: as §6, §7, §8

[1] = Compound 44 plasma concentration in WSU-DLCL2 tumor-bearing mice, LC-MS/MS; details: 225 mg/kg BID
Protocol: On several days during the study mice were sampled in a pre-specified fashion. Sampling included non-terminal bleeds (0.25 mL) from the mandibular vein without anesthesia and full volume blood collection via terminal cardiac puncture under CO2 anesthesia. Blood samples were processed for plasma, with K2-EDTA as anti-coagulant. The plasma samples were frozen at −80° C. and stored prior to bioanalysis of compound levels.
Plasma samples were obtained on day 28 at 5 minutes prior to the last dose (“trough”) and 3 hours after the last dose (“post”).

H3K27me3 = assay: Histone methylation status in WSU-DLCL2 xenograft tumors, Western blot and ELISA; assay type: in vivo, SCID mice; details: after 28 days of treatment
Protocol: Histones were extracted from tumor samples as described above. […] The plates were sealed and incubated overnight at 4° C. The following day, plates were washed 3× with 300 ul/well PBST (PBS+0.05% Tween 20; 10×PBST, KPL #51-14-02) on a Bio Tek plate washer. Plates were blocked with 300 ul/well of diluent (PBS+2% BSA+0.05% Tween 20), incubated at RT for 2 hours, and washed 3× with PBST. All antibodies were diluted in diluent. […] Plates were washed 4× with PBST. For detection, 100 ul/well of TMB substrate (BioFx Laboratories, #TMBS) was added and plates incubated in the dark at RT for 5 min. […] Absorbance at 450 nm was read on SpectaMax M5 Microplate reader.

[2] = test system: SUDHL10 human lymphoma cells; assay type: in vivo; details: 28 days
Protocol: (§1) The animals were fed ad libitum water (reverse osmosis 1 ppm Cl) and NIH 31 Modified and Irradiated Lab Diet® consisting of 18.0% crude protein, 5.0% crude fat, and 5.0% crude fiber. The mice were housed on irradiated Enrich-o'cobs™ bedding in static microisolators on a 12-hour light cycle at 20-22° C. (68-72° F.) and 40-60% humidity. All procedures comply with the recommendations of the Guide for Care and Use of Laboratory Animals with respect to restraint, husbandry, surgical procedures, feed and fluid regulation, and veterinary care.
(§2) Human lymphoma cell lines were harvested during mid-log phase growth, and resuspended in PBS with 50% Matrigel™ (BD Biosciences). Each mouse received 1×10^7 cells (0.2 mL cell suspension) subcutaneously in the right flank. Tumors were calipered in two dimensions to monitor growth as the mean volume approached the desired 80-120 mm^3 range. Tumor size, in mm^3, was calculated from: […]
(§3) Compounds of Formula (IIa) were stored at room temperature and protected from light. On each treatment day, a fresh compound formulations were prepared by suspending the powders in 0.5% sodium carboxymethylcellulose (NaCMC) and 0.1% Tween® 80 in deionized water. […] Formulations were stored away from light at 4° C. prior to administration.
Several chemotherapeutica were used in parallel to Epizyme compounds. […]
(§4) Mice were treated at compound doses ranging from 75-600 mg/kg and at TID (3 times a day every 8 h), BID (twice a day every 12 h) or QD (once a day) schedules for various amount of days by oral gavage or injections via the intravenous, intraperitoneal or subcutaneous routes. Each dose was delivered in a volume of 0.2 mL/20 g mouse (10 mL/kg), and adjusted for the last recorded weight of individual animals. […]
Treatment efficacy was determined on the last treatment day. MTV(n), the median tumor volume for the number of animals, n, evaluable on the last day, was determined for each group. […] First, the difference between the MTV(n) of the designated control group and the MTV(n) of the drug-treated group is expressed as a percentage of the MTV(n) of the control group: […]

OCI-LY19 cell line = assay: Cell viability of OCI-LY19 cells, Guava ViaCount and flow cytometry; assay type: cell-based, human; details: OCI-LY19 (wild-type EZH2); for cell viability: single agent
Protocol: (§5) Cell viability was determined 4 days later using Millipore Guava ViaCount reagent and flow cytometry analysis. Percentage of cell viability was normalized to percentage of the DMSO-treated sample.

[3] = test system: SUDHL6 human lymphoma cells; assay: Efficacy study in SUDHL6 xenograft model; assay type: in vivo, athymic nude mice; details: Compound 44 alone over the 28 day treatment
Protocol: as §1, §2, §4

RL cells = assay: Cell viability of RL cells, Guava ViaCount and flow cytometry; assay type: cell-based, human; details: RL cells (EZH2 Y641N); for cell viability: single agent
Protocol: as §5

[4] = test system: WSU-DLCL2 human lymphoma cells; assay: Cell viability of WSU-DLCL2 cells, Guava ViaCount and flow cytometry; assay type: cell-based; details: for cell viability, combination with Compound 44: WSU-DLCL2
Protocol: The dosage schedule is depicted in FIG. 1A. […] After 4 days, cell viability was determined using Millipore Guava ViaCount Reagent and flow cytometry analysis.
Cell viability was determined by staining with Millipore Guava ViaCount Reagent and then analyzed by flow cytometry.
as §5

[5] = test system: WSU-DLCL2 human lymphoma cells; assay: Efficacy study in WSU-DLCL2 xenograft model; assay type: in vivo; details: 28 days
Protocol: as §1, §2, §3
Several chemotherapeutica were used in parallel to Epizyme compounds. Cyclophosphamide (Baxter, Lot #016591), was reconstituted to 20 mg/mL with sterile saline and stored at 4° C. A fresh dosing solution was prepared for each dose by dilution with saline. Doxorubicin (Doxorubicin Meiji®, Meiji Pharmaceutical Co. Ltd., 1 mg/mL) was stored at 4° C. and diluted with saline on each treatment day. Vincristine (Hospira, Inc., 1 mg/mL) was diluted with saline on each treatment day. Prednisone (Boehringer Ingelheim GmbH, 1 mg/mL) was diluted with PBS at the beginning of each 5-day dosing cycle.
Mice were treated at compound doses ranging from 75-600 mg/kg and at TID (3 times a day every 8 h), BID (twice a day every 12 h) or QD (once a day) schedules for various amount of days by oral gavage or injections via the intravenous, intraperitoneal or subcutaneous routes. Each dose was delivered in a volume of 0.2 mL/20 g mouse (10 mL/kg), and adjusted for the last recorded weight of individual animals. The maximal treatment length was 28 days.
Treatment efficacy was determined on the last treatment day. MTV(n), the median tumor volume for the number of animals, n, evaluable on the last day, was determined for each group. Percent tumor growth inhibition (% TGI) can be defined several ways. First, the difference between the MTV(n) of the designated control group and the MTV(n) of the drug-treated group is expressed as a percentage of the MTV(n) of the control group: […]
Another way of calculating % TGI is taking the change of the tumor size from day 1 to day n into account with n being the last treatment day.
SCID mice were subcutaneously injected with 1×10^7 WSU-DLCL2 human lymphoma cells. […] Tumor volume was measured twice a week until the endpoint of 28 days.

[6] = Compound 44 for 4 days, then Compound 44 plus agent for 4 days (FIG. 1A schedule)

In the case of Nc1ccn([C@@H]2O[C@H](CO)[C@@H](O)[C@@H]2O)c(=O)n1 [AraC], the “synergy characterization (Chou-Talalay)” value (WSU-DLCL2 cells) is reported as “Synergism”, the combination benefit (Toledo cells) is reported as “no combination benefit; also recorded: No enhancement” and the “synergy characterization (Chou-Talalay)” value (SU-DHL-10 cells) is reported as “Synergism”.

With N.N.[Cl][Pt][Cl] [Cisplatin] the “synergy characterization (Chou-Talalay)” value (WSU-DLCL2 cells) was “Synergism”, the combination benefit (Toledo cells) was “no combination benefit; also recorded: No enhancement” and the “synergy characterization (Chou-Talalay)” value (SU-DHL-10 cells) was “synergism”.

For CCN(c1cc(-c2ccc(CN3CCOCC3)cc2)cc(C(=O)NCc2c(C)cc(C)[nH]c2=O)c1C)C1CCOCC1 [Compound 44, N-((4,6-dimethyl-2-oxo-1,2-dihydropyridin-3-yl)methyl)-5-(ethyl (tetrahydro-2H-pyran-4-yl)amino)-4-methyl-4′-(morpholinomethyl)-[1,1′-biphenyl]-3-carboxamide], the “Compound 44 plasma level, with CHOP vs single agent” value ([1]; day 28, 3 hours after the last dose) was “significantly increased”, the “Compound 44 plasma level, with CHOP vs single agent” value ([1]; day 28, trough (5 minutes prior to the last dose)) was “not significantly different” and the “methylation of H3K27 in tumors, ELISA” value (H3K27me3; H3K27me3 normalized to total H3) was “inhibited”. The “methylation of H3K27 in tumors, Western blot” value (H3K27me3; all dosages and dosing schedules) was “inhibited”, the “% TGI from day 7” value ([2]; Compound 44 125 mg/kg BID) was 57% and the “% TGI from day 7” value ([2]; Compound 44 250 mg/kg BID) was 113%. The “% TGI from day 7” value ([2]; Compound 44 500 mg/kg BID) was 115%, the cell viability (OCI-LY19 cell line) was “does not affect cell viability; also recorded: do not show sensitivity” and the single agent efficacy [3] was “not observed”. The cell viability (RL cells) was “does not result in a reduction in cell viability”, the cell viability ([4]; single agent, increasing concentrations, WSU-DLCL2 (EZH2 Y641F)) was “decrease in cell viability; also recorded: reduction of cell growth” and the “sensitivity of cell viability” value (Toledo cells; Compound 44 alone) was “no sensitivity”. For the same compound, the “% TGI from day 1” value ([5]; Compound 44 150 mg/kg TID) was 73%, the “% TGI from day 7” value ([5]; Compound 44 150 mg/kg TID) was 86% and the “% TGI from day 1” value ([5]; Compound 44 225 mg/kg BID) was 71%. For the same compound, the “% TGI from day 7” value ([5]; Compound 44 225 mg/kg BID) was 80%, the “% TGI from day 1” value ([5]; Compound 44 300 mg/kg BID) was 57% and the “% TGI from day 7” value ([5]; Compound 44 300 mg/kg BID) was 67%. For the same compound, the “% TGI from day 1” value ([5]; Compound 44 600 mg/kg QD) was 58% and the “% TGI from day 7” value ([5]; Compound 44 600 mg/kg QD) was 70%.

With C[C@@H]1C[C@H]2[C@@H]3CCC4=CC(=O)C=C[C@]4(C)[C@@]3(F)[C@@H](O)C[C@]2(C)[C@@]1(O)C(=O)CO [Dexamethasone] the “enhancement of Compound 44 potency (fold IC50 shift)” value (from here on “enhancement … (fold IC50 shift)”) (WSU-DLCL2 cells) was 17 fold and the “enhancement … (fold IC50 shift)” value (SU-DHL-10 cells) was 3 fold.

In the case of COc1cccc2c1C(=O)c1c(O)c3c(c(O)c1C2=O)C[C@@](O)(C(=O)CO)C[C@@H]3O[C@H]1C[C@H](N)[C@H](O)[C@H](C)O1 [Doxorubicin], the “synergy characterization (Chou-Talalay)” value (WSU-DLCL2 cells) is reported as “Synergism”, the “cell viability, combination with Compound 44” value (“cell viability, combination” below) [4, 6] is reported as “did not exhibit reduced cell viability” and the combination benefit (Toledo cells) is reported as “no combination benefit; also recorded: No enhancement”. For the same compound, the “synergy characterization (Chou-Talalay)” value (SU-DHL-10 cells) was “Synergism”.

With CO[C@H]1C[C@@H]2CC[C@@H](C)[C@@](O)(O2)C(=O)C(=O)N2CCCC[C@H]2C(=O)O[C@H]([C@H](C)C[C@@H]2CC[C@@H](OCCO)[C@H](OC)C2)CC(=O)[C@H](C)/C=C(\C)[C@@H](O)[C@@H](OC)C(=O)[C@H](C)C[C@H](C)/C=C/C=C/C=C/1C [Everolimus] the “synergy characterization (Chou-Talalay)” value (WSU-DLCL2 cells) was “very strong synergism”, the combination benefit (Toledo cells) was “no combination benefit; also recorded: No enhancement” and the “synergy characterization (Chou-Talalay)” value (SU-DHL-10 cells) was “Strong synergism”.

For C[C@]12C=CC(=O)C=C1CC[C@@H]1[C@@H]2[C@@H](O)C[C@@]2(C)[C@H]1CC[C@]2(O)C(=O)CO [Prednisolone], the “cell viability, combination” value (OCI-LY19 cell line; FIG. 1A schedule) was “does not have an additional or synergistic effect on cell viability”, the cell viability (OCI-LY19 cell line) was “show sensitivity” and the “enhancement … (fold IC50 shift)” value (WSU-DLCL2 cells) was 7 fold. For the same compound, the “cell viability, combination” value (RL cells; FIG. 1A schedule) was “synergistic effect”, the cell viability (RL cells) was “resistant” and the “cell viability, combination” value ([4]; Compound 44 first, then agent alone (FIG. 1B schedule)) was “additional reduction of cell viability”. For the same compound, the “cell viability, combination” value [4, 6] was “synergistic reduction in cell viability; also recorded: additional reduction of cell growth; also recorded: reduced cell viability”, the “cell viability, combination” value ([4]; agent first, then Compound 44 plus agent (FIG. 1C schedule)) was “did not cause a synergistic effect on cell viability” and the combination benefit (Toledo cells) was “no combination benefit; also recorded: No enhancement”. For the same compound, the “enhancement … (fold IC50 shift)” value (SU-DHL-10 cells) was 3 fold.

In the case of CC[C@]1(O)C[C@H]2CN(CCc3c([nH]c4ccccc34)[C@@](C(=O)OC)(c3cc4c(cc3OC)N(C=O)[C@H]3[C@@](O)(C(=O)OC)[C@H](OC(C)=O)[C@]5(CC)C=CCN6CC[C@]43[C@@H]65)C2)C1 [Vincristine], the “cell viability, combination” value [4, 6] is reported as “reduced cell viability at the highest concentration Compound 44”.
